Source: US20030166301A1, “Multiple binding moiety chromatography device, methods of using and methods of making same” (priority 2001, published 2003)
Where “and” joins values, the source holds several entries; their conditions need not be identical. Equal entries are not always repeated. Where two headings read alike, the source gives them in different places.

Legend:
NCT receptor = NCT receptor (Rattus norvegicus, UniProt P09483+P12390); type: binding
Protocol: (§1) Solubilization of rat brain tissue: All of the tissue from four rat brains was homogenized in 30 ml of Tris-HCl buffer (50 mM, pH 7.4) containing 5 mM EDTA, 3 mM benzamidine and 0.2 mM PMSF for 3×20 seconds using a Polytron homogenizer (Brinkman Instruments, Westbury, N.Y., USA) at setting 6. The mixture was kept in an ice bath for 20 seconds between each homogenization step to prevent excessive heating of the tissue. The homogenized brain tissue was centrifuged for 10 minutes at 4° C. at 35,000×g, and the supernatant was discarded. The pellet was suspended in 10 ml of Tris-HCl buffer (50 mM, pH 7.4) containing 100 mM NaCl, 2 mM MgCl2, 3 mM CaCl2, 5 mM KCl, 2% sodium cholate, and 10 μg/ml leupeptin. The resulting mixture was stirred for 12 hours at 4° C. and centrifuged at 35,000×g.
(§2) Immobilization of solubilized receptors: The supernatant (receptor-cholate suspension) was mixed with 200 mg of dried IAM-PC packing material and stirred gently for 1 hour at 25° C., transferred into dialysis tubing, and dialyzed for 48 hours at 4° C. against 3×600 ml of Tris-HCl buffer (50 mM, pH 7.4) containing 5 mM EDTA, 100 mM NaCl, 0.1 mM CaCl2 and 0.1 mM PMSF. […]
(§3) The value of Vmin can be determined by running (^3H)-EB in a series of concentration of drugs and plotting 1/(Vmax−V) versus 1/(drug) extrapolating to infinite (drug). […]

GABAA receptor [1] = assay: Frontal chromatography on MR-SP, marker (3H)-FTZ; type: binding, rat
Protocol: as §1, §2, §3

Nicotinic Receptor = conditions: read-out: Kd Standard, cited from earlier work
PGP = PGP (Homo sapiens, UniProt P08183); assay: Frontal chromatography on open tubular PGP column (PGP-OTB)
Protocol: Preparation of open tubular capillary: A 25 cm×100 u ID capillary was cleaned with 0.5 N NaOH running through for 40 minutes at low pressure followed by water for 20 minutes. Then placed in the oven at 95° C. for 30 minutes. Then APTS (90 parts water: 10 parts APTS) was run through the column for 5 minutes at high pressure and placed in the oven for 30 minutes. This was repeated and left overnight. The following morning, a 1% gluteraldehyde solution in PBS was then run through at high pressure for 30 minutes followed by air. Then avidin (10 mg in 4 mL 50 mM PBS) was run through for 3 minutes at high pressure. Then both tips were submerged in the avidin solution overnight at 4° C. It was determined at this stage that the column needs to be washed for 4-6 hours at 50 ul/min with Tris buffer prior to continuing to the next stage. The purpose being to remove any unbound avidin. A frontal study using a 5 mL sample of 0.5 nM ^3H-Vinblastin (RM062702002) was carried out to determine if vinblastin had specific binding to avidin.
Subsequently, a solution of 14 mM BioX (15 mg of BioX in 1 mL DMSO) was run through the column at high pressure for 10 minutes and left in the solution for 48 hours. A frontal study of 0.5 nM ^3H-Vinblastin (5 mL) was carried out on the BiotinX-Avidin labeled OT column to determine if any interactions between vinblastin and biotin could be seen. […]

GABAA receptor [2] = conditions: rat brain membranes; read-out: Kd Standard; cited from earlier work

Chain of PGP (P08183 whole entry): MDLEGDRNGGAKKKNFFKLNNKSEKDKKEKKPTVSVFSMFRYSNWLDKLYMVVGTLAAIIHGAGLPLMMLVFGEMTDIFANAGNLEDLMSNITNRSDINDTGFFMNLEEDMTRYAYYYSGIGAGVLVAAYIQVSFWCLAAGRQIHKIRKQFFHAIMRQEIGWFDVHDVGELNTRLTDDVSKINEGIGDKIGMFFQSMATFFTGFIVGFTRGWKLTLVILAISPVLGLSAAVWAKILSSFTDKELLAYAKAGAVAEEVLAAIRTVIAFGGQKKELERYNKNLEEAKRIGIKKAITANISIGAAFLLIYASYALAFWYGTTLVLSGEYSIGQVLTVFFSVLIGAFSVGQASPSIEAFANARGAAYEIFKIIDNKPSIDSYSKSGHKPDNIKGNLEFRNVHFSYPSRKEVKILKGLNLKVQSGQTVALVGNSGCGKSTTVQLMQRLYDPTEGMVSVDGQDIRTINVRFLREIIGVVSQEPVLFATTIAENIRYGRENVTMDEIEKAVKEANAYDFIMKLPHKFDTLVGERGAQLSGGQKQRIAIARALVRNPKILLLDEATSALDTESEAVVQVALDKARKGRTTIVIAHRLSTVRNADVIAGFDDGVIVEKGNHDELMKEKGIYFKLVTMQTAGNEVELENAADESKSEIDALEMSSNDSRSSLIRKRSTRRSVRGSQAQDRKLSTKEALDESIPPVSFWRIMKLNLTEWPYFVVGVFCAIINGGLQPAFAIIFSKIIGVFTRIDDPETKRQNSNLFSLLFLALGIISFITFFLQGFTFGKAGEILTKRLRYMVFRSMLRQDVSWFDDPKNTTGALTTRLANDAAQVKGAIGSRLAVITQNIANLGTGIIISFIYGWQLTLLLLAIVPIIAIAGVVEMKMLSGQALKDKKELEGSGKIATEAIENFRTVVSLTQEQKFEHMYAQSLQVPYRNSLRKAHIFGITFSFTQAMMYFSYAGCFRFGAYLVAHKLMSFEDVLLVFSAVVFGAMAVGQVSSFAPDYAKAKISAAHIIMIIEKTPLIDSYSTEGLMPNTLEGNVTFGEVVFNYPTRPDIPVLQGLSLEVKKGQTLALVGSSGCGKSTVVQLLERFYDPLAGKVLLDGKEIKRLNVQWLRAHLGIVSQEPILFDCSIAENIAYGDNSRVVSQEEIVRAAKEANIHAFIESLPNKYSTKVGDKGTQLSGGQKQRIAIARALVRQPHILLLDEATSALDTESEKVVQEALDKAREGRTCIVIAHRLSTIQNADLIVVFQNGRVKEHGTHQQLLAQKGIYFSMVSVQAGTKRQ
Chain of NCT receptor (P12390 25-500): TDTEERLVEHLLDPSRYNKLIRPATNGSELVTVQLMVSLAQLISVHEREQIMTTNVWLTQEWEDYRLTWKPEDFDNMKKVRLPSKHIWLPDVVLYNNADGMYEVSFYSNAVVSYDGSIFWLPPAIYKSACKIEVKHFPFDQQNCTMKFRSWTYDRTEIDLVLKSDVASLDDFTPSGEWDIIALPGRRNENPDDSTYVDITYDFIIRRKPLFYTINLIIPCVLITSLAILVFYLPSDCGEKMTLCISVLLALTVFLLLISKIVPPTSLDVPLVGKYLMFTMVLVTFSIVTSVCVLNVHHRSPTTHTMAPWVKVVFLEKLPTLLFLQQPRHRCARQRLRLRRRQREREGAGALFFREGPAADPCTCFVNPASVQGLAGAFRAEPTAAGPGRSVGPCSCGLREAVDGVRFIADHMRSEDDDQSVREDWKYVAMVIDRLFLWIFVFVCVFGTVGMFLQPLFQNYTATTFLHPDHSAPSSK
Chain of NCT receptor (P09483 31-630): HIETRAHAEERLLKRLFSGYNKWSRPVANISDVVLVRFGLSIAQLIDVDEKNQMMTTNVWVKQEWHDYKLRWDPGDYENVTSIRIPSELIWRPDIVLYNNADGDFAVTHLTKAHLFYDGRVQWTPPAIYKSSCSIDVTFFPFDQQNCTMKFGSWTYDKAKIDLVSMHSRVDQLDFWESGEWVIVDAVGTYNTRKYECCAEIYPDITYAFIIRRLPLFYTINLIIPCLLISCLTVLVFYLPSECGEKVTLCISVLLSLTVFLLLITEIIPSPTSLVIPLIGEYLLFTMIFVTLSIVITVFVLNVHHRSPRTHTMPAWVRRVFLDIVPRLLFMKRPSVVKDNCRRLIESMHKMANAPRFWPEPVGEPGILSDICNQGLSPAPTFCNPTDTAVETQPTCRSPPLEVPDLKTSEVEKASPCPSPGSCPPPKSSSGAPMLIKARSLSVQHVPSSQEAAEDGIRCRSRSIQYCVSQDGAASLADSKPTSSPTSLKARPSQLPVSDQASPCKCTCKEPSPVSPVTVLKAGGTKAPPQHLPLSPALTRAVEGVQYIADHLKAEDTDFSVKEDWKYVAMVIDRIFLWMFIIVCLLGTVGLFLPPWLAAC
Protocol for NMDA receptor: as §1
Immobilization of solubilized receptors: The supernatant (receptor-cholate suspension) was mixed with 200 mg of dried IAM-PC packing material and stirred gently for 1 hour at 25° C., transferred into dialysis tubing, and dialyzed for 48 hours at 4° C. against 3×600 ml of Tris-HCl buffer (50 mM, pH 7.4) containing 5 mM EDTA, 100 mM NaCl, 0.1 mM CaCl2 and 0.1 mM PMSF.
The resulting mixture was centrifuged for 3 minutes at 4° C. at 32,000×g, and the supernatant was discarded. The pellet (MR-SP) was washed with Tris-HCl buffer (50 mM, pH 7.4) and centrifuged. This process was repeated until the supernatant was clear. The MR-SP was then collected.
Chromatographic procedures: The MR-SP (200 mg) was packed into a HR 5/2 glass column (Amersham Pharmacia Biotech, Uppsala, Sweden) to yield a 150 mm×5 mm (ID) chromatographic bed. The column was then connected to a P 1000 isocratic HPLC pump (Thermo Separations, San Jose, Calif., USA). The mobile phase consisted of Tris-HCl buffer (50 mM, pH 7.4) delivered at a flow rate 0.4 ml/min at room temperature.
In the chromatographic studies, a 50 ml sample Superloop (Amersham Pharmacia Biotech) was used to apply a series of (^3H)-marker ligand concentrations through the MR-SP column to obtain elution profiles showing front and plateau regions. […]

For CN1CCCC1c1cccnc1 (stereo not shown) [Nicotine], which “Effect on elution (breakthrough) volume of 60 pM (3H)-EB” value (NCT receptor) is on record?
The value was “reduction in the breakthrough volume”.

And the “Effect on elution volume of 25 pM (3H)-FTZ” value (GABAA receptor [1]; ligand at 1 μM in mobile phase)?
Its value is “no decrease in the elution volume”.

What about the Kd (Nicotinic Receptor) of the same compound?
The Kd was 0.8 nM.

With CC[C@]1(O)C[C@@H]2CN(CCc3c([nH]c4ccccc34)[C@@](C(=O)OC)(c3cc4c(cc3OC)N(C)[C@H]3[C@@](O)(C(=O)OC)[C@H](OC(C)=O)[C@]5(CC)C=CCN6CC[C@]43[C@@H]65)C2)C1 [Vinblastin] as the compound, how does the “Bmax (binding sites on the PGP-OTB column)” value (PGP; not told) read?
The value was 3 mmol.

And the Kd (PGP; read-out: Kd for the PGP-OTB column, 0.5 nM 3H-Vinblastin marker, r2 0.902)?
Its Kd is 97 nM.

Which Kd (Nicotinic Receptor; rat brain membranes) does the source give for Clc1ccc(C2CC3CCC2N3)cn1 (stereo not shown) [Epibatidine] here?
The Kd was 0.05 nM.

Which “Displacement of (3H)-MK-801” value (NMDA receptor; displacer 1 mM to 2 mM in chromatographic buffer) does the source give for CN[C@H](CC(=O)O)C(=O)O [NMDA, N-methyl D-aspartate] here?
The value was “able to specifically displace”.

And the Kd (NMDA receptor; read-out: Kd Frontal, MR-SP, 2 nM (3H)-MK-801 marker, 1 μM L-glutamate and 1 μM glycine, two determinations (FIG. 2A, 2B))?
The Kd was 1.2 nM and 0.6 nM.

With CN1C(=O)CN=C(c2ccccc2)c2cc(Cl)ccc21 [Diazepam] as the compound, how does the Kd (GABAA receptor [1]; MR-SP from rat brain, 25 pM (3H)-FTZ marker, Tris-HCl 50 mM pH 7.4) read?
The Kd was 1 nM.

What about the Kd (GABAA receptor [2]) of the same compound?
The Kd was 1.3 nM.
